Results as given in publication PMC11855827, “High-Throughput Screening of Five Compound Libraries for Anthelmintic Activity and Toxicity Leads to the Discovery of Two Flavonoid Compounds” (International Journal of Molecular Sciences, 2025).
Values joined by “and” are separate entries in the source; they are usually repeats but may differ in a detail not shown here. Equal entries are not always repeated. Where two headings read alike, the source gives them in different places.

Key:
[1] = system: C. elegans; test: microbe, parasite or virus in culture; conditions: Caenorhabditis elegans
[2] = system: C. elegans
[3] = 24 h, read-out: Percentage of motility inhibition 24 h, Table S2, C. elegans SS assay, 110 μM, 24 h, averages of 4 data points
[4] = Table S2, C. elegans SS assay, 110 μM, 24 h, averages of 4 data points
[5] = 0 h, read-out: Percentage of motility inhibition 0 h, Table S2, C. elegans SS assay, 110 μM, 0 h, averages of 4 data points
[6] = Table S2, C. elegans SS assay, 110 μM, averages of 4 data points
[7] = 0 h, read-out: Percentage of motility inhibition 0 h
[8] = 24 h, read-out: Percentage of motility inhibition 24 h

CC1(C)[C@@H](O)CC[C@]2(C)[C@H]3C(=O)C=C4[C@H]5C[C@@](C)(C(=O)O)CC[C@]5(C)CC[C@@]4(C)[C@]3(C)CC[C@@H]12 [18α-Glycyrrhetinic acid]
inhibition at 110 µM [1, 3]: 18%
Percentage of motility inhibition 24 h [2, 4]: 10%

CC[C@H]1[C@@H]2C[C@H]3[C@@H]4N(C)c5ccccc5[C@]45C[C@@H]([C@H]2[C@H]5O)N3[C@@H]1O [Ajmaline]
inhibition at 110 µM [1, 5]: 19%
Percentage of motility inhibition 0 h [2, 6]: 13%

C=C1CC[C@@H]2[C@](C)(CO)[C@H](O)CC[C@@]2(C)[C@@H]1C/C=C1/C(=O)OC[C@H]1O [Andrographolide]
inhibition at 110 µM [1, 3]: 17%
Percentage of motility inhibition 24 h [2, 4]: 19%

C[C@H]1[C@H](OC(=O)CCC(=O)O)O[C@@H]2O[C@@]3(C)CC[C@H]4[C@H](C)CC[C@@H]1[C@@]24OO3 [Artesunate]
inhibition at 110 µM [1, 5]: 12%
inhibition at 110 µM [1, 3]: 30%
Percentage of motility inhibition 0 h [2, 6]: 21%
Percentage of motility inhibition 24 h [2, 4]: 15%

O=c1cc(-c2ccccc2)oc2cc(O)c(O)c(O)c12 [Baicalein]
inhibition at 110 µM [1, 5]: 10%
inhibition at 110 µM [1, 3]: 12%
Percentage of motility inhibition 0 h ([2]; 110 μM): 14%
Percentage of motility inhibition 24 h ([2]; 24 h, 110 µM): 19%

O=C(O)[C@H]1O[C@@H](Oc2cc3oc(-c4ccccc4)cc(=O)c3c(O)c2O)[C@H](O)[C@@H](O)[C@@H]1O [Baicalin]
inhibition at 110 µM [1, 3]: 15%
Percentage of motility inhibition 24 h ([2]; 24 h, 110 µM): 24%

C=C(C)[C@@H]1CC[C@]2(C(=O)O)CC[C@]3(C)[C@H](CC[C@@H]4[C@@]5(C)CC[C@H](O)C(C)(C)[C@@H]5CC[C@]43C)[C@@H]12 [Betulinic acid]
inhibition at 110 µM [1, 5]: 27%
Percentage of motility inhibition 0 h [2, 6]: 22%

CC12CCC(CC1=O)C2(C)C (stereo not drawn) [Camphor]
inhibition at 110 µM [1, 5]: 0%
inhibition at 110 µM [1, 3]: 5%
Percentage of motility inhibition 24 h [2, 4]: 10%

CC[C@@]1(O)C(=O)OCc2c1cc1n(c2=O)Cc2cc3ccccc3nc2-1 [Camptothecin]
inhibition at 110 µM [1, 5]: 25%
inhibition at 110 µM [1, 3]: 6%
Percentage of motility inhibition 24 h [2, 4]: 3%

O=c1c(-c2ccc(O)cc2)coc2cc(O)ccc12 [Daidzein]
inhibition at 110 µM [1, 3]: 14%
Percentage of motility inhibition 24 h [2, 4]: 10%

COC(=O)[C@H]1[C@H]2C[C@@H]3c4[nH]c5ccccc5c4CCN3C[C@H]2C[C@@H](OC(=O)c2cc(OC)c(OC)c(OC)c2)[C@@H]1OC [Deserpidine]
inhibition at 110 µM [1, 3]: 21%
Percentage of motility inhibition 24 h [2, 4]: 23%

CC[C@H]1OC(=O)[C@H](C)[C@@H](O[C@H]2C[C@@](C)(OC)[C@@H](O)[C@H](C)O2)[C@H](C)[C@@H](O[C@@H]2O[C@H](C)C[C@H](N(C)C)[C@H]2O)[C@](C)(O)C[C@@H](C)C(=O)[C@H](C)[C@@H](O)[C@]1(C)O [Erythromycin]
inhibition at 110 µM [1, 3]: 5%
Percentage of motility inhibition 0 h [2, 6]: 10% and 0%

Cc1ccc(C(C)C)cc2c(C)ccc1-2 [Guaiazulene]
inhibition at 110 µM [1, 3]: 24%
Percentage of motility inhibition 24 h ([2]; 24 h, 110 µM): 12%

COC(=O)C[C@](O)(CCCC(C)(C)O)C(=O)O[C@@H]1C(OC)=C[C@]23CCCN2CCc2cc4c(cc2[C@H]13)OCO4 [Homoharringtonine]
inhibition at 110 µM [1, 5]: 20%
Percentage of motility inhibition 0 h [2, 6]: 12%
Percentage of motility inhibition 24 h [2, 4]: 2% and 0%

CC1=C[C@]23C(=O)[C@@H](C=C(CO)[C@@H](O)[C@]2(O)[C@H]1O)[C@H]1[C@@H](C[C@H]3C)C1(C)C [Ingenol]
inhibition at 110 µM [1, 3]: 19%
Percentage of motility inhibition 0 h [2, 6]: 0% and 1%

COc1ccc2c(c1O)-c1c(OC)c(OC)cc3c1[C@H](C2)N(C)CC3 [Isocorydine]
inhibition at 110 µM [1, 5]: 0%
Percentage of motility inhibition 24 h [2, 4]: 7%

C[C@H]1C(=O)O[C@@H]2CCN3CC=C(COC(=O)[C@](C)(O)[C@]1(C)O)[C@H]23 [Monocrotaline]
inhibition at 110 µM [1, 3]: 12%
Percentage of motility inhibition 0 h [2, 6]: 2%
Percentage of motility inhibition 24 h [2, 4]: 15%

CCn1cc(C(=O)O)c(=O)c2ccc(C)nc21 [Nalidixic acid]
inhibition at 110 µM [1, 5]: 27%
inhibition at 110 µM [1, 3]: 18%
Percentage of motility inhibition 0 h [2, 6]: 22%
Percentage of motility inhibition 24 h [2, 4]: 26%

CC1(C)CC[C@]2(C(=O)O)CC[C@]3(C)C(=CC[C@@H]4[C@@]5(C)CC[C@H](O)C(C)(C)[C@@H]5CC[C@]43C)[C@@H]2C1 [Oleanolic Acid]
inhibition at 110 µM [1, 7]: 4%
Percentage of motility inhibition 24 h ([2]; 110 µM): 1% and 0%

O=C1CCC[C@@H]2[C@H]3CCC[N+]4([O-])CCC[C@@H](CN12)[C@@H]34 (stereo partly drawn) [Oxymatrine]
inhibition at 110 µM [1, 3]: 11%
Percentage of motility inhibition 24 h ([2]; 24 h, 110 µM): 6%

CC1(C)CCC[C@](C)([C@H]2CC[C@]3(C)[C@@H]2[C@H](O)C[C@@H]2[C@@]4(C)CC[C@H](O)C(C)(C)[C@@H]4[C@@H](O)C[C@]23C)O1 [Panaxatriol]
inhibition at 110 µM [1, 3]: 15%
Percentage of motility inhibition 24 h [2, 4]: 11%

CC(C)(O)[C@H]1O[C@H]2CC[C@@]3(C)[C@@](O)(CC[C@H]4Cc5c([nH]c6ccccc56)[C@@]43C)C2=CC1=O [Paxilline]
inhibition at 110 µM [1, 5]: 12%
Percentage of motility inhibition 24 h [2, 4]: 0% and 8%

COC(=O)[C@]1(C)CC[C@]2(C)CC[C@]3(C)C4=CC=C5C(=CC(=O)C(O)=C5C)[C@]4(C)CC[C@@]3(C)[C@@H]2C1 [Pristimerin]
inhibition at 110 µM [1, 5]: 29%
inhibition at 110 µM [1, 3]: 23%
Percentage of motility inhibition 0 h [2, 6]: 15%
Percentage of motility inhibition 24 h [2, 4]: 24%

CC(C)=CCC/C(C)=C/CC/C(C)=C/CC/C=C(\C)CC/C=C(\C)CCC=C(C)C [Squalene]
inhibition at 110 µM [1, 5]: 4%
inhibition at 110 µM [1, 3]: 11%
Percentage of motility inhibition 24 h ([2]; 24 h, 110 µM): 19%

CNCC(O)c1ccc(O)cc1 (stereo not drawn) [Synephrine]
inhibition at 110 µM [1, 5]: 16%
Percentage of motility inhibition 24 h [2, 4]: 24%

COc1ccc2cc1Oc1ccc(cc1)C[C@H]1c3cc(c(OC)cc3CCN1C)Oc1c(OC)c(OC)cc3c1[C@H](C2)N(C)CC3 [Tetrandrine]
inhibition at 110 µM [1, 3]: 16%
Percentage of motility inhibition 24 h ([2]; 24 h, 110 µM): 12%

Nc1ncnc2c1ncn2[C@@H]1O[C@H](CO)[C@@H](O)[C@@H]1O [Vidarabine]
inhibition at 110 µM [1, 3]: 0%
Percentage of motility inhibition 0 h [2, 6]: 4%

OC[C@@H](O)[C@H](O)[C@@H](O)CO [Xylitol]
inhibition at 110 µM [1, 5]: 22%
inhibition at 110 µM [1, 3]: 13%

O=C[C@H](O)[C@@H](O)[C@H](O)CO [Xylose]
inhibition at 110 µM [1, 5]: 17%
inhibition at 110 µM [1, 3]: 11%

CC1=CC(=O)[C@@H](O)[C@]2(C)[C@H]3[C@@H](O)[C@H](O)[C@]4(CO)OC[C@@]35[C@@H](C[C@@H]12)OC(=O)[C@H](O)[C@]54O [Yadanziolide A]
inhibition at 110 µM [1, 5]: 0%
inhibition at 110 µM [1, 3]: 36%

O=C(O)[C@@H]1[C@H]2C[C@H]3c4[nH]c5ccccc5c4CCN3C[C@@H]2CC[C@@H]1O [Yohimbic acid]
inhibition at 110 µM [1, 5]: 4%
inhibition at 110 µM [1, 3]: 51%

COC(=O)[C@@H]1[C@H]2C[C@H]3c4[nH]c5ccccc5c4CCN3C[C@@H]2CC[C@@H]1O [Yohimbine]
inhibition at 110 µM [1, 5]: 7%
Percentage of motility inhibition 0 h ([2]; 110 μM): 8%

CCN1C[C@]2(COC)[C@H](O)C[C@H](OC)[C@]34C1[C@H]([C@H](OC)[C@H]23)[C@@]1(OC(C)=O)C[C@H](OC)[C@@]2(O)C[C@@H]4[C@@H]1[C@H]2OC(=O)c1ccc(OC)cc1 [Yunaconitine]
inhibition at 110 µM [1, 5]: 24%
inhibition at 110 µM [1, 3]: 5%

Nc1ccn([C@H]2CC[C@@H](CO)O2)c(=O)n1 [Zalcitabine]
inhibition at 110 µM [1, 5]: 19%
inhibition at 110 µM [1, 3]: 20%

CC(=O)N[C@H]1[C@H]([C@H](O)[C@H](O)CO)OC(C(=O)O)=C[C@@H]1N=C(N)N [Zanamivir]
inhibition at 110 µM [1, 5]: 22%
inhibition at 110 µM [1, 3]: 6%

Cc1cn([C@H]2C[C@H](N=[N+]=[N-])[C@@H](CO)O2)c(=O)[nH]c1=O [Zidovudine]
inhibition at 110 µM [1, 5]: 7%
inhibition at 110 µM [1, 3]: 4%

CCCCC[C@H](O)CC(=O)CCc1ccc(O)c(OC)c1 [[6]‐Gingerol]
inhibition at 110 µM [1, 5]: 1%
inhibition at 110 µM [1, 3]: 10%

C[C@@H]1O[C@@H](O[C@H]2[C@H](O[C@H]3CC[C@@]4(C)[C@@H](CC[C@]5(C)[C@@H]4CC=C4[C@@H]6CC(C)(C)CC[C@]6(C(=O)O)CC[C@]45C)[C@]3(C)CO)OC[C@H](O)[C@@H]2O)[C@H](O)[C@H](O)[C@H]1O [alpha-Hederin]
inhibition at 110 µM [1, 7]: 6%
inhibition at 110 µM [1, 8]: 0%

O[C@H]1[C@H](O)[C@@H](O)[C@H](O)[C@@H](O)[C@H]1O [i-Inositol]
inhibition at 110 µM [1, 5]: 0%
inhibition at 110 µM [1, 3]: 0%

O=C(O)CCCCC1CCSS1 (stereo not drawn) [α-Lipoic Acid]
inhibition at 110 µM [1, 5]: 9%
inhibition at 110 µM [1, 3]: 3%

CC1=CC[C@@H](C(C)(C)O)CC1 [α-Terpineol]
inhibition at 110 µM [1, 5]: 22%
inhibition at 110 µM [1, 3]: 17%

CC(=O)OC(C)(C)C1CC=C(C)CC1 (stereo not drawn) [α-Terpinyl acetate]
inhibition at 110 µM [1, 5]: 18%
inhibition at 110 µM [1, 3]: 28%

CC(C)[C@]12CC(=O)[C@H](C)[C@H]1C2 [α-Thujone]
inhibition at 110 µM [1, 5]: 9%
inhibition at 110 µM [1, 3]: 20%

C[C@H]1[C@H](C)CC[C@]2(C)CC[C@]3(C)C(=CC[C@@H]4[C@@]5(C)CC[C@@H](O)[C@](C)(C(=O)O)[C@@H]5CC[C@]43C)[C@H]12 [β-Boswellic acid]
inhibition at 110 µM [1, 7]: 32%
inhibition at 110 µM [1, 8]: 22%

C=C1CC/C=C(\C)CC[C@@H]2[C@@H]1CC2(C)C [β-Caryophyllene]
inhibition at 110 µM [1, 5]: 28%
inhibition at 110 µM [1, 3]: 27%

CC(C)=CCC[C@H](C(=O)O)[C@H]1CC[C@]2(C)C3=C(CC[C@@]12C)[C@@]1(C)CCC(=O)C(C)(C)[C@H]1CC3 [β-Elemonic acid]
inhibition at 110 µM [1, 5]: 23%
inhibition at 110 µM [1, 3]: 28%

C=C1C=CC(C(C)C)CC1 (stereo not drawn) [β-Phellandrene]
inhibition at 110 µM [1, 5]: 17%
inhibition at 110 µM [1, 3]: 20%

C=C1CCC2CC1C2(C)C (stereo not drawn) [β-Pinene]
inhibition at 110 µM [1, 5]: 2%
inhibition at 110 µM [1, 3]: 12%

CC1=CCC(C(C)C)=CC1 [γ-Terpinene]
inhibition at 110 µM [1, 5]: 6%
inhibition at 110 µM [1, 3]: 31%
